According to patent US6288261A, “Inhibitors of matrix metalloproteinases” (Abbott Laboratories, priority 1999, dated 2001):

Target: T1, recombinant truncated stromelysin (human sequence) (Homo sapiens, UniProt P08254)
T1 construct: made in house; host or cells: E. coli
Assay: Determination of Stromelysin Inhibition
Assay type: biochemical
Settings: recombinant truncated human stromelysin produced in E. coli
Experimental: Determination of Stromelysin Inhibition
The efficacy of the compounds of this invention as matrix metalloproteinase inhibitors was determined by measuring the inhibition of stromelysin. The inhibition of stromelysin by the compounds of this invention was determined as follows: recombinant truncated stromelysin (human sequence) produced in E. coli was prepared by expression and purification of the protein as described by Ye et al, Biochemistry, 1992, 31, 11231-11235. The IC50 values were determined as described in Steiman et al, Bioorganic and Medicinal Chemistry Letters, (1998), 8, 2087-2092 (footnote 13).

T1 sequence (P08254 100-273 limits assumed): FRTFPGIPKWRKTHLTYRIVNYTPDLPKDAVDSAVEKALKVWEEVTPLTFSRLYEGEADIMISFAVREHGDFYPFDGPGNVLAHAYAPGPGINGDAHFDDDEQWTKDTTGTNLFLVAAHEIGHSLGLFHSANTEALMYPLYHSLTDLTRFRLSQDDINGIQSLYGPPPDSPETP

IC50 [µM] | Structure (SMILES)
0.64 | O=C(NO)c1c(CCOc2ccc(-c3ccc(Cl)cc3)cc2)ccc2ccccc12 [Example 1, 2-[2-[(4'-chloro[1,1'-biphenvyl]-4-vl)oxy]eyl]-N-hydroxy-1-naphthalenecarboxamide]
0.67 | O=C(NO)c1c(OCCS(=O)(=O)c2ccc(-c3ccc(Cl)cc3)cc2)ccc2ccccc12 [Example 6, 2-[[2-(4'-chloro[1,1'-biphenyl]-4-yl)sulfonyl]ethoxy]-N-hydroxy-1-naphthalenecarboxamide]
0.46 | COc1ccc(-c2ccc(S(=O)(=O)CCOc3ccc4ccccc4c3C(=O)NO)cc2)cc1 [Example 7, N-hydroxy-2-[2-[(4'-methoxy[1,1'-biphenyl]-4-vl)sulfonyl]ethoxy]-1-naphthalenecarboxamide]
3.7 | O=C(NO)c1c(CCS(=O)(=O)c2ccc(-c3ccc(Cl)cc3)cc2)ccc2ccccc12 [Example 8, 2-[2-[(4'-chloro[1,1'-biphenyl]-4-yl)sulfonyl]ethyl]-N-hydroxy-1-naphthalenecarboxamide]
0.69 | O=C(NO)c1c(CNS(=O)(=O)c2ccc(-c3ccc(OC(F)(F)F)cc3)cc2)ccc2ccccc12 [Example 9]
0.4 | COc1ccc(-c2ccc(S(=O)(=O)CCCc3ccc4ccccc4c3C(=O)NO)cc2)cc1 [Example 10, N-hydroxy-2-[3-[(4'-methoxy[1,1'-biphenyl]-4-yl)sulfonyl]propyl]-1-naphthalenecarboxamide]
1.5 | COc1ccc(-c2ccc(C(=O)CCCc3ccc4ccccc4c3C(=O)NO)cc2)cc1 [Example 11, N-hydroxy-2-[4-(4'-methoxy[1,1'-biphenyl]-4-yl)-4-oxobutyl]-1-naphthalenecarboxamide]
0.45 | COc1ccc(-c2ccc(C(=O)CCc3ccc4ccccc4c3C(=O)NO)cc2)cc1 [Example 12, N-hydroxy-2-[3-(4'-methoxy[1,1'-biphenyl]-4-yl)-3-oxopropyl]-1-naphthalenecarboxamide]
0.062 | N#CCc1cccc(-c2ccc(S(=O)(=O)CCOc3ccc4ccccc4c3C(=O)NO)cc2)c1 [Example 13]
